Laboratory results: patent publication US9603859B2, “Methods and products for increasing the rate of healing of tissue wounds” (BRIGHAM YOUNG UNIVERSITY, priority 2011, dated 2017)

How the values were obtained:
primary human MSC cells = experiment: Wound healing array q-PCR gene expression in mesenchymal stem cells; assay type: cell-based; conditions: 8 hours treatment
Source text: To determine the role of synthetic Ceragenins CSA-13, 44 and 90 in wound healing using mesenchymal stem cells (MSC), targeted mRNA panels from SABiosciences, and primary cells from Lonza were selected. Cells were purchased from Lonza.com and used fresh for each test using recommended media and culture conditions. After treatment, mRNA was isolated using Qiagen RNeasy Mini Kit®, and quantified using a NanoDrop 2000® by UV at 260 nm and 260/280 ratio for purity. cDNA was made using a First Strand Kit® from SABiosciences and processed for real time PCR using a kit from the same company for selected analysis of wound healing pathways. Results from q-PCR were uploaded to the SABiosciences site and to Ingenuity.com web site for analysis and pathway mapping. SABiosciences wound healing array plates (Cat# PAHS-121) and innate/acquired immune response plates (PAHS-052) were used. These arrays are fully validated when used as recommended. On day 1, primary human MSC cells were plated at 200,000 cells/well using 6-well plates with 3 ml of recommended media—hMSC Basal Medium+BulletKit (50 ml Growth Supplement, 10 ml L-Glutamine and 0.5 ml Gentamicin Sulfate Amphotercin-B) for 24 hours. Only early passages of cells were used, and never from frozen stock. On day 2, cells were treated with compounds dissolved in DMSO diluted 1:1000 or more to avoid effects of the solvent. Final testing concentration for CSA-13 was 5.0 μM. Treatment lasted 8 hours, and was followed by RNA isolation using QIAGEN RNeasy Mini Kit® (74104). RNA was measured at 260/280 nm using a NanoDrop 2000® and normalized to 2.4 ng per well, cDNA preparation was done using QIAGEN First Strand kit 330401. q-PCR was run as absolute quantification and threshold set at 0.1 units. Dendritic cells were plated at 500,000 cells/well using 24-well plate with 500 ul of Lonza LGM-3 Complete Growth Medium with and without compound. Treatment lasted 8 hours, and was followed by RNA isolation using QIAGEN RNeasy Mini Kit® (74104). RNA was measured at 260/280 nm using NanoDrop2000® and normalized to 2.4 ng per well, cDNA preparation was done using QIAGEN First Strand kit 330401. PCR was run as absolute quantification and threshold set at 0.1 units. For the wound healing array, strong upregulation of growth factors such as HB-EGF and cell migration factors such as MMP1 and CXCL2 were found, indicating a clear potential for CSA as a modulator of wound healing. Additional gene expression data is provided in Tables 1-3 for CSA-13, 44, and 90, respectively.

[1] = tested on: Mixed-species biofilms of S. aureus and P. aeruginosa; experiment: Mixed-species biofilm susceptibility, live/dead staining; assay type: cell-based; conditions: biofilms grown in collagen-coated plates for 24 hours
HaCaT migration = HaCaT migration by ECIS (2D wound healing); assay type: cell-based, human
Protocol: Standard microdilution methods were used to determine minimum inhibitory concentration (MIC) and minimum bactericidal concentration (MBC) of test agents (peptides and peptide-mimics) against drug resistant Staphylococcus. aureus (TCH1516) and Pseudomonas. aeruginosa (PAO1). […] Cytotoxicity of test agents to human immortalized keratinocytes (HaCaTs) was assessed using 3-[4,5-dimethylthiazol-2-yl]-2,5-diphenyl tetrazolium bromide (MTT). Promotion of HaCaT migration by test agents was tested using electric cell-substrate impedance sensing (ECIS®), which induced 2D wound healing. The ability of test agents to stimulate angiogenesis was evaluated using matrigel-induced tube formation of human vein endothelial cells (HUVECs).

## CCCCCN(CCCCC)CCC[C@@H](C)[C@H]1CC[C@H]2[C@@H]3[C@H](OCCCN)C[C@@H]4C[C@H](OCCCN)CC[C@]4(C)[C@H]3C[C@H](OCCCN)[C@]12C [CSA-90]
Primary human MSC cells
  Fold Regulation ACTA2: −2.5014
  Fold Regulation ACTB: −2.0745
  Fold Regulation CCL2: −1.5793
  Fold Regulation COL4A3: −1.6195
  Fold Regulation CTGF: −15.7171
  Fold Regulation CTSK: 1.5366
  Fold Regulation CTSL2: 1.6306
  Fold Regulation EGFR: 1.6212
  Fold Regulation FGF7: 5.1689
  Fold Regulation HGF: 2.3334
  Fold Regulation IFNG: 1.839
  Fold Regulation IGF1: 2.2724
  Fold Regulation ITGA3: −1.5127
  Fold Regulation ITGB6: 1.9381
  Fold Regulation MMP9: 2.5652
  Fold Regulation SERPINE1: −3.7307
  Fold Regulation TGFBR3: −1.5938
  Fold Regulation TIMP1: 1.8212
  Fold Regulation WISP1: −2.3543
Primary human MSC cells; CSA-13 at 5.0 μM
  Fold Regulation ANGPT1: −1.915
  Fold Regulation CCL7: 2.2874
  Fold Regulation CXCL1: 3.1083
  Fold Regulation CXCL2: 36.5878
  Fold Regulation F13A1: 2.1032
  Fold Regulation FGF10: 1.9842
  Fold Regulation HBEGF: 3.5988
  Fold Regulation IL2: 1.8522
  Fold Regulation IL6: 7.2299
  Fold Regulation IL10: −1.7382
  Fold Regulation ITGA2: 14.3637
  Fold Regulation ITGB3: −1.538
  Fold Regulation MMP1: 45.3753
  Fold Regulation PLAT: −2.14
  Fold Regulation PLAUR: 1.9924
  Fold Regulation PTGS2: 66.6189
  Fold Regulation VEGFA: 3.3257

## Dermaseptin S1
[1]
  anti-biofilm activity: increased in anti-biofilm activity when shortened to the first 15 amino acids

## LL-37: a human peptide and positive control (LLGDFFRKSKEKIGKEFKRIVQRIKDFLRNLVPRTES; Antibacterial peptide LL-37; UniProt P49913 134-170, looked up)
[1]
  anti-biofilm activity: showed anti-biofilm activity
HaCaT migration
  induction of wound healing: induced wound healing
